Data on 4 molecules can be found in US9552457B2, “Reprogramming effector protein interactions to correct epigenetic defects in cancer” (BRITISH COLUMBIA CANCER AGENCY BRANCH, priority 2012, dated 2017).

Like-named read-outs stand apart in the source and are kept apart here. Where only a bound is given, the exact number is not on record here.

The test system of test [1] is SU-DHL-9 (MLL2 homozygous indel mutant) cell line. The test can be described thus: alamarBlue cell proliferation assay, SU-DHL-9 cell line. It is filed as cell-based, human. Particulars: for activity at 10 µM: Homo sapiens, 48 hours, normalized to carrier-treated control, SU-DHL-9, read-out: % Cell Proliferation; for activity against the MLL2 double LoF mutant cell line: SU-DHL-9, in words; for activity as worded in SAR analysis (selective toxicity against SU-DHL-9): in words, restates Tables 3 and 4. On the procedure:
Cell line DOHH2 was obtained from DSMZ. Pfeiffer was obtained from ATCC. SU-DHL-9 was obtained from Martin Dyer (University of Leicester, UK).
Compounds were initially solubilized in DMSO at a concentration of 10 mM. […] Ninety microliters of cells maintained at a concentration of 4×10^5 cells/mL were dispensed into wells of a MICROTEST™ 96-well Assay Plate, Optilux™ (BD). Ten microliters of the 100 μM compound solution were then added to the cells resulting in a final compound concentration of 10 μM. Each compound was tested in triplicate. […] Compounds were incubated with the cells in a 37° C. incubator with 5% CO2, humidified atmosphere for 48 hours before being subjected to the alamarBlue® cell proliferation assay (Life Technologies). Raw fluorescent units were corrected for background noise and normalized to the carrier-treated control.
Background: Resazurin is reduced to fluorescent resorufin, in cell work by metabolically active cells.

The test system of test [2] is DoHH-2, OCI-LY3, WSU-DLCL2 (all wild-type for MLL2). As to the kind of experiment: alamarBlue cell proliferation assay, MLL2 wild-type cell lines. It counts as cell-based. Particulars: for activity against wild-type cells: in words. The procedure:
Diffuse large B-cell lymphoma cell lines were maintained in RPMI medium 1640 (Life Technologies) supplemented with 10% (v/v) fetal bovine serum (Life Technologies) and 1% penicillin/streptomycin (Life Technologies) in a 37° C. incubator with 5% CO2, humidified atmosphere. Cell line DOHH2 was obtained from DSMZ. Pfeiffer was obtained from ATCC. SU-DHL-9 was obtained from Martin Dyer (University of Leicester, UK).
Compounds were initially solubilized in DMSO at a concentration of 10 mM. This compound solution was further diluted 1:100 in RPMI medium 1640 to a final concentration of 100 μM. Ninety microliters of cells maintained at a concentration of 4×10^5 cells/mL were dispensed into wells of a MICROTEST™ 96-well Assay Plate, Optilux™ (BD). Ten microliters of the 100 μM compound solution were then added to the cells resulting in a final compound concentration of 10 μM. Each compound was tested in triplicate. Ten microliters of a 1:100 DMSO to RPMI medium 1640 solution were also added to 90 μL of cells as a carrier control. Furthermore, each plate included wells containing only RPMI medium 1640 to serve as a background noise control as well as cells that were completely untreated. Compounds were incubated with the cells in a 37° C. incubator with 5% CO2, humidified atmosphere for 48 hours before being subjected to the alamarBlue® cell proliferation assay (Life Technologies). Raw fluorescent units were corrected for background noise and normalized to the carrier-treated control.
The activity of Compound 3 in vitro was investigated further using the cell lines DoHH-2, OCI-LY3, WSU-DLCL2 (all wild-type for MLL2) and SU-DHL9. In addition, the dose response for Compound 2 was investigated in cell lines mutant for MLL2 or both MLL2 and EZH2. The dose response for Compound 3 was investigated in a MLL2 mutant cell line. Methods were as described for Example 3. Cell-line WSU-DLCL2 was obtained from DSMZ and OCI-Ly lines 3 was obtained from Louis Staudt (US National Institutes of Health).

Test [3] addresses T1, GST-BPTF dual PHD finger-bromodomain (Homo sapiens, UniProt Q12830).
T1 construct: The dual PHD finger-bromodomain (residues 2583-2751) from the human BPTF (gi:31322942); made in house; host or cells: E. coli BL21-AI
The test can be described thus: BPTF pull down assay with H3K4 methylated peptides. It counts as binding. Particulars: 68 μM drug. The procedure: Certain embodiments of the invention relate to the use of a “pull down” assay to characterize the binding of candidate compounds to the target mark. A general schema for such an assay as it applies to BPTF is shown in FIG. 4 and described in Example 5. Briefly, the GST-labeled PHD finger-bromodomain of BPTF was incubated with the candidate compound and H3K4me0, me1, me2 or me3 peptides that were coupled to streptavidin-labeled dynabeads through a biotin molecule on the peptide. After washing with an appropriate buffer, bound protein was eluted from the beads and assessed by SDS-PAGE and optionally Western blot. One skilled in the art will appreciate that this assay can be readily adapted to other readers/erasers and histone marks.
The full-length human BPTF construct was obtained from C. David Allis of the Laboratory of Chromatin Biology, Rockefeller University (Li et al., 2006, ibid). The dual PHD finger-bromodomain (residues 2583-2751) from the human BPTF (gi:31322942) was cloned into a pDEST15 vector using Gateway® cloning technology allowing for an N-terminal GST tag (Life Technologies). Over-expression of the GST-BPTF dual PHD finger-bromodomain was induced in BL21-AI™ chemically competent E. coli cells using LB medium supplemented with 1 mM IPTG and 0.2% L-arabinose for 2 hours in a 37° C. shaking incubator. GST-BPTF dual PHD finger-bromodomain was purified using Glutathione Sepharose 4B media (GE Healthcare Life Sciences) and dialyzed against PBS (Life Technologies) overnight.
The peptide pull-down experiment was performed essentially as previously described (Ruthenburg et al., 2011, Cell, 145(5):692-706.). Fifty microliters of M-280 streptavidin-coupled Dynabeads® (Life Technologies) were dispensed into 1.5 mL microtubes and washed 3×50 μL in PBS. The beads were then incubated with C-terminally biotinylated H3K4me0, me1, me2 or me3 peptides 21 amino acids long (Anaspec) rotating for 1 hour at 4° C. under saturating conditions. The beads were washed 3×100 μL in HBS-TD (10 mM Na-HEPES, 150 mM NaCl, 0.005% Tween-20, 2 mM DTT) and incubated with 6.8 μM of GST-BPTF along with either 68 μM of drug in a 1:100 DMSO to PBS solution or carrier alone rotating for 3 hours at 4° C. The beads were then washed 10×200 μL in HBS-TD. The protein was eluted using 2×LDS sample buffer (Life Technologies) and 1× reducing agent (Life Technologies) at 85° C. for 10 minutes. Samples were subjected to SDS-PAGE and bands were visualized using either SimplyBlue stain (Life Technologies) or GST antibody (Santa Cruz). Quantification of bands was made using ImageJ software.

The subject of test [4] is SU-DHL-9 (MLL2 mutated) tumours. The test can be described thus: SU-DHL-9 mouse xenograft model. It counts as in vivo. The settings on record: eight days, day nine. The procedure:
NOD/SCID/γ^null (NSG) mice were bred at the local BCCRC animal facility. To establish primary tumors, male NSG mice were inoculated with 1×10^7 cells of the human diffuse histiocytic lymphoma cell line SU-DHL-9 in 50 μl PBS in the flank area. After development of s.c. tumors, mice were sacrificed and small fragments of the tumors (˜20 mg) were transplanted s.c. into the right flank of anesthetized six-ten weeks old male NSG recipient mice using 13 G trocar needles. Treatment was initiated once the tumors became palpable. Tumourlength and width was determined by caliper and tumourvolume was calculated by the modified ellipsoidal formula as […].
Compounds were diluted in a mixture of 50% DMSO and 50% polyethylene glycol 200. Eight tumor-bearing mice per group were administered by intraperitoneal injections daily over a period of eight days with either compounds at doses of 1 mg/kg or 4 mg/kg (Compound 3; NSC 127763), 4 mg or 12 mg/kg (Compound 2; NSC 304107) or the vehicle for control. Body weight was recorded every two days, tumoursize every four days and mice were monitored for any other additional adverse effects. Experimental animals were sacrificed at day nine, tumourvolumes were determined and the significance of differences was determined by Student's t-test after normalizing to the initial tumourvolume.

Test [5] has as its system DoHH2 Cells (wildtype for EZH2, MEF2B and MLL2). As to the kind of experiment: Cell viability of lymphoma cell lines, DoHH-2. It counts as cell-based. The settings on record: DoHH-2, in words. On the procedure: (§1) Compound 50 was tested for its effect on the viability of three lymphoma cell lines in vitro using standard methods. The cell lines tested were: DoHH-2 (wildtype for EZH2, MEF2B and MLL2); WSU-DLCL2 (EZH2 mutation Y641F (wildtype for MEF2B and MLL2)) and DB (EZH2 mutation Y641N, the MEF2B mutation D83V and three mutations in MLL2 (two of which lead to a truncated protein after residue Q2736 and the third allele has a 1 base pair deletion at residue P480)).
(§2) Compound 51 (NSC2540) was tested for its effect on the viability of four lymphoma cell lines in vitro using standard methods. The cell lines tested were DoHH-2, WSU-DLCL2, DB and SU-DHL-9 (EZH2 wildtype, MEF2B wildtype, MLL2 indel).

For test [6], the system named is WSU-DLCL2 Cells (EZH2 mutation Y641F). As to the kind of experiment: Cell viability of lymphoma cell lines, WSU-DLCL2. It is filed as cell-based, human. Particulars: WSU-DLCL2, in words. The procedure: as §1, §2
The subject of test [7] is DB (EZH2 mutation Y641N, MEF2B mutation D83V, three mutations in MLL2). As to the kind of experiment: Cell viability of lymphoma cell lines, DB. It is filed as cell-based. The settings on record: in words. On the procedure:
as §1

Test [8] deals with WSU-DLCL2 human diffuse large cell lymphoma tumours. The test can be described thus: WSU-DLCL2 mouse xenograft model. It counts as in vivo. Particulars: 1 mg/kg or 4 mg/kg intraperitoneal daily for ten days, evaluation at day 12; p=0.0047 control vs 4 mg/kg. On the procedure: WSU-DLCL2 tumourfragments were transplanted subcutaneously into the flank of male NSG mice. Mice were 9.0-9.3 weeks at transplantation and treatment was started when the mice were between 12.9 and 13.1 weeks. 8 mice were used per group and treatment was daily for ten days with evaluation at day 12. Tumoursize determined by caliper every four days, tumourvolume calculated by length×width^2/2.
The groups of mice were treated with vehicle (control), 1 mg/kg Compound 50 or 4 mg/kg Compound 50 by intraperitoneal injection. Vehicle was 50% DMSO/50% PEG-400.
WSU-DLCL2 tumourfragments were transplanted subcutaneously into the flank of male NSG mice. Mice were 5.3-9.4 weeks at transplantation and treatment was started when the mice were between 8.6 and 12.7 weeks. 8 mice were used in the control group and 6 mice were used in the Compound 51 treated group. Treatment was daily for ten days with evaluation at day 12. Tumoursize determined by caliper every four days, tumourvolume calculated by length×width^2/2.
The groups of mice were treated with vehicle (control) or Compound 51 by intraperitoneal injection at 4 mg/kg for the first 5 days and 2 mg/kg for the subsequent 5 days. Vehicle was 50% DMSO/50% PEG-400.

Where [9] appears, read: 6.8 μM GST-BPTF, GST antibody staining.

For the molecule `CN(C)CCC(=O)c1ccc(Cl)cc1Cl` [Compound 2, 1-(2,4-dichloro-phenyl)-3-dimethylamino-propan-1one], the activity at 10 µM in test [1] (Table 3, scaffold A) is under 10%. Moreover, in test [1], the “activity against the MLL2 double LoF mutant cell line” value was “active” and the “activity as worded in SAR analysis (selective toxicity against SU-DHL-9)” value (from here on “activity … (selective toxicity against SU-DHL-9)”) was “active”. Moreover, the “activity against wild-type cells” value in test [2] was “inactive”. In addition, in test [3] (setting [9]), the “binding of H3K4me2 with BPTF” value is reported as “able to stabilize the binding” and the “binding of H3K4me3 with BPTF” value is recorded as “diminished binding”. Further, the median tumour growth in test [4] (12 mg/kg intraperitoneal daily, untreated control 1755%) amounted to 1305%.
`O=C1c2ccccc2C(=O)c2c(NC(=O)C(Cl)CCl)cccc21` (stereo not shown) [Compound 3, 2,3-didhloro-N-(9,10-dioxo-9,10-dihydro-anthracen-1-yl)-propionamide]: the activity at 10 µM in test [1] (Table 4, scaffold B) was under 10%. Also, in test [1], the “activity against the MLL2 double LoF mutant cell line” value is “active” and the “activity … (selective toxicity against SU-DHL-9)” value is given as “active”. Also, the “effect on cells where MLL2 was wild-type” value in test [2] (DoHH-2, OCI-LY3, WSU-DLCL2) is reported as “no obvious effect”. In addition, the “activity against wild-type cells” value in test [2] is “inactive”. Besides, in test [3] (setting [9]), the “binding of H3K4me1 with BPTF” value was “able to stabilize the binding” and the “binding of H3K4me3 with BPTF” value is on record as “diminished binding”. Besides, the “Densitometry value, H3K4me3 + compound” value in test [3] (without compound 2545) turned out to be 4227. The “Densitometry value, H3K4me1 + compound” value in test [3] (without compound 9350) stood at 13335. In test [4] (4 mg/kg intraperitoneal daily, untreated control 563%), the median tumour growth turned out to be 362%.
For the molecule `C=C(CN(C)C)C(=O)c1cc(C)ccc1C` [Compound 1, 2-dimethylaminomethyl-1-(2,5-dimethyl-phenyl)-propenone], the activity at 10 µM in test [1] (Table 3, scaffold A) was under 10%. Besides, in test [1], the “activity against the MLL2 double LoF mutant cell line” value is given as “active” and the “activity … (selective toxicity against SU-DHL-9)” value is “active”. Further, the “activity against wild-type cells” value in test [2] was “inactive”.
As to `O=C(CBr)c1cc(-c2ccccc2)nc2c(Cl)cc(Cl)cc12` [Compound 50], the figures for the effect on viability entry in test [5], in test [6] and in test [7] were “reduced the viability”, “highest activity” and “reduced the viability”, respectively. In addition, the “effect on tumour volume” value in test [8] is “able to reduce tumour volume”.
